Measurements published in patent EP4803080A1, “METHOD FOR TREATING LEUKEMIA” (Shenzhen TargetRx Co., Ltd., priority 2023, dated 2025).

What was measured:
[1] = tested on: chronic phase (CP) chronic myeloid leukemia (CML); test: Phase I dose escalation and dose expansion clinical trial: efficacy in CML-CP subjects; type: in vivo, humans
Excerpt: This study is a single-arm, open-label, dose-escalation and dose-expansion Phase I clinical trial.
The dose-escalation phase of this trial consists of about 8 dose groups, with oral administration under fasting conditions. Subjects in all dose groups will receive a single dose on Day 1 (D1), followed by pharmacokinetic (PK) and tolerability observations. […] After entering the multiple-dose period, subjects in the first dose group will initially receive twice-daily (BID) dosing (if PK data from the single-dose period are available, the dosing frequency during the multiple-dose period may be adjusted based on the PK data). The dosing frequency for subjects in subsequent dose groups after entering the multiple-dose period will be determined based on available PK and tolerability data. Throughout the trial, dosing frequency for all subjects may be adjusted based on continuously updated safety and PK data.
(§1) A continuous reassessment method (CRM) based on the principle of the escalation with overdose control (EWOC) design will be used to recommend the next specific dose for each dose escalation, thereby completing dose escalation and determining the maximum tolerated dose (MTD). If both the investigator and sponsor believe that higher dose groups may offer better efficacy and manageable safety, the EWOC-based CRM method may be used to explore higher doses. All enrolled subjects will receive long-term treatment with the test drug and undergo evaluations for safety, tolerability, and preliminary efficacy.
After obtaining certain research data from the dose-escalation phase, the investigator may comprehensively consider safety, efficacy, and other information to decide whether to enroll additional subjects at the MTD and/or lower dose levels to determine the recommended Phase II dose (RP2D). Two to four suitable dosing regimens will be selected for expansion in the target population (including subjects enrolled at the target dose levels during the escalation phase).
A total of 8 dose groups were established: 10 mg bid, 20 mg bid, 40 mg bid, 80 mg bid, 40 mg qd, 80 mg qd, 160 mg qd, and 240 mg qd.
The dose expansion phase was conducted in the following 3 cohorts: • Cohort 1: Subjects with chronic phase (CP) chronic myeloid leukemia (CML) who had previously received at least ≥2 different TKIs and were T315I-negative. A total of 3 dose groups were established: 40 mg qd, 80 mg qd, and 240 mg qd; • Cohort 2: Subjects with chronic phase (CP) chronic myeloid leukemia (CML) who have previously received ≥1 TKI and were T315I-positive. A total of 2 dose groups were established: 40 mg qd and 240 mg qd; • Cohort 3: Subjects with accelerated phase (AP) chronic myeloid leukemia (CML) who have previously received ≥1 TKI, regardless of T315I positivity. A total of 1 dose group was established: 240 mg qd.

[2] = Phase I clinical trial: safety and tolerability; type: in vivo
Excerpt: To explore the safety and tolerability of multiple doses of Compound A in humans, and to determine the maximum tolerated dose (MTD) and the recommended Phase II dose (RP2D).
This study is a single-arm, open-label, dose-escalation and dose-expansion Phase I clinical trial. The trial plans to enroll patients with chronic myeloid leukemia (CML) who have developed resistance or intolerance after prior treatment with BCR-ABL1 tyrosine kinase inhibitor(s) (TKIs).
The dose-escalation phase of this trial consists of about 8 dose groups, with oral administration under fasting conditions. Subjects in all dose groups will receive a single dose on Day 1 (D1), followed by pharmacokinetic (PK) and tolerability observations. If no drug-related adverse events of Grade 3 or higher occur during the single-dose period, the subject will enter the multiple-dose period (i.e., the treatment period) after 3-5 days (for the first dose group, the multiple-dose period begins 5 days after the first dose [i.e., starting on Day 6]; for subsequent dose groups, the interval will be determined based on available tolerability and PK data). After entering the multiple-dose period, subjects in the first dose group will initially receive twice-daily (BID) dosing (if PK data from the single-dose period are available, the dosing frequency during the multiple-dose period may be adjusted based on the PK data). The dosing frequency for subjects in subsequent dose groups after entering the multiple-dose period will be determined based on available PK and tolerability data. Throughout the trial, dosing frequency for all subjects may be adjusted based on continuously updated safety and PK data.
as §1

[3] = CML-CP subjects previously treated with ponatinib, olverembatinib, asciminib, and/or HS-10382, as of June 2, 2024
[4] = CML-CP subjects, all doses, 58 evaluable, as of August 24, 2023
[5] = CML-CP subjects, all doses, as of August 24, 2023
[6] = CML-CP subjects, as of June 2, 2024
[7] = CML-CP, 10 mg BID, 2 evaluable subjects, as of August 24, 2023
[8] = CML-CP, 20 mg BID, 3 evaluable subjects, as of August 24, 2023
[9] = CML-CP, 40 mg BID, 1 evaluable subject, as of August 24, 2023
[10] = CML-CP, 40 mg QD, 15 evaluable subjects, as of August 24, 2023
[11] = CML-CP, 40 mg/day Total, 18 evaluable subjects, as of August 24, 2023
[12] = CML-CP, 80 mg BID, 3 evaluable subjects, as of August 24, 2023
[13] = CML-CP, 80 mg QD, 2 evaluable subjects, as of August 24, 2023
[14] = CML-CP, 80 mg/day Total, 3 evaluable subjects, as of August 24, 2023
[15] = CML-CP, 160 mg QD, 1 evaluable subject, as of August 24, 2023
[16] = CML-CP, 160 mg/day Total, 4 evaluable subjects, as of August 24, 2023
[17] = CML-CP, 240 mg QD, 31 evaluable subjects, as of August 24, 2023
[18] = CML-CP, Total, all dose groups, 58 evaluable subjects, as of August 24, 2023
[19] = CML subjects, safety data cutoff June 2, 2023

With `O=C(Nc1ccc(OC(F)(F)Cl)cc1)c1cnc(N2CC[C@@H](F)C2)c(-c2cnccn2)c1` [Compound A, (R)-N-(4-(chlorodifluoromethoxy)phenyl)-6-(3-fluoropyrrolidin-1-yl)-5-(pyrazin-2-yl)nicotinamide] the “18-month cumulative incidence of CCyR” value [1, 3] was 17%, the “18-month cumulative incidence of MCyR” value [1, 3] was 32% and the CHR ([1]; CML-CP subjects, all doses, 35 evaluable, as of August 24, 2023) was 91.4%. For the same compound, the CCyR [1, 4] was 34.5%, the MCyR [1, 4] was 39.7% and the MMR ([1]; CML-CP subjects, all doses, 62 evaluable, as of August 24, 2023) was 16.1%. The “median time to CCyR” value [1, 5] was 2.81 (2.76, 3.30) months, the “median time to MCyR” value [1, 5] was 2.83 (2.76, 3.68) months and the “median time to MMR” value [1, 5] was 2.81 (2.76, 5.49) months. The “CHR within 3 treatment cycles” value ([1]; CML-CP subjects, 49 evaluable, as of June 2, 2024) was 82%, the “18-month cumulative incidence rate for CCyR” value [1, 6] was 40% and the “18-month cumulative incidence rate for MCyR” value [1, 6] was 52%. For the same compound, the “18-month cumulative incidence rate for MMR” value [1, 6] was 26%, the CHR ([1]; CML-CP, 10 mg BID, 0 evaluable subjects, as of August 24, 2023) was 0 n (%) and the CCyR [1, 7] was 1 (50.0) n (%). The MCyR [1, 7] was 2 (100) n (%), the MMR [1, 7] was 1 (50.0) n (%) and the CHR ([1]; CML-CP, 20 mg BID, 2 evaluable subjects, as of August 24, 2023) was 2 (100) n (%). The CCyR [1, 8] was 2 (66.7) n (%), the MCyR [1, 8] was 2 (66.7) n (%) and the MMR [1, 8] was 0 n (%). For the same compound, the CCyR [1, 9] was 0 n (%), the CHR [1, 9] was 1 (100) n (%) and the MCyR [1, 9] was 0 n (%). For the same compound, the MMR [1, 9] was 0 n (%), the CHR ([1]; CML-CP, 40 mg QD, 7 evaluable subjects, as of August 24, 2023) was 6 (85.7) n (%) and the CCyR [1, 10] was 5 (33.3) n (%). For the same compound, the MCyR [1, 10] was 5 (33.3) n (%), the MMR ([1]; CML-CP, 40 mg QD, 17 evaluable subjects, as of August 24, 2023) was 3 (17.6) n (%) and the CHR ([1]; CML-CP, 40 mg/day Total, 9 evaluable subjects, as of August 24, 2023) was 8 (88.9) n (%). The CCyR [1, 11] was 7 (38.9) n (%), the MCyR [1, 11] was 7 (38.9) n (%) and the MMR ([1]; CML-CP, 40 mg/day Total, 20 evaluable subjects, as of August 24, 2023) was 3 (15.0) n (%). For the same compound, the CHR ([1]; CML-CP, 80 mg BID, 2 evaluable subjects, as of August 24, 2023) was 2 (100) n (%), the CCyR [1, 12] was 1 (33.3) n (%) and the MCyR [1, 12] was 1 (33.3) n (%). The MMR [1, 12] was 1 (33.3) n (%), the CCyR [1, 13] was 1 (50.0) n (%) and the MCyR [1, 13] was 1 (50.0) n (%). For the same compound, the MMR [1, 13] was 0 n (%), the CHR ([1]; CML-CP, 80 mg QD, 3 evaluable subjects, as of August 24, 2023) was 3 (100) n (%) and the CCyR [1, 14] was 1 (33.3) n (%). The MCyR [1, 14] was 1 (33.3) n (%), the MMR [1, 14] was 0 n (%) and the CHR ([1]; CML-CP, 80 mg/day Total, 4 evaluable subjects, as of August 24, 2023) was 4 (100) n (%). The CCyR [1, 15] was 1 (100) n (%), the CHR [1, 15] was 1 (100) n (%) and the MCyR [1, 15] was 1 (100) n (%). The MMR [1, 15] was 1 (100) n (%), the CHR ([1]; CML-CP, 160 mg/day Total, 3 evaluable subjects, as of August 24, 2023) was 3 (100) n (%) and the CCyR [1, 16] was 2 (50.0) n (%). The MCyR [1, 16] was 2 (50.0) n (%), the MMR [1, 16] was 2 (50.0) n (%) and the CHR ([1]; CML-CP, 240 mg QD, 19 evaluable subjects, as of August 24, 2023) was 17 (89.5) n (%). For the same compound, the CCyR [1, 17] was 9 (29.0) n (%), the MCyR [1, 17] was 11 (35.5) n (%) and the MMR ([1]; CML-CP, 240 mg QD, 33 evaluable subjects, as of August 24, 2023) was 4 (12.1) n (%). The CHR ([1]; CML-CP, Total, all dose groups, 35 evaluable subjects, as of August 24, 2023) was 32 (91.4) n (%), the CCyR [1, 18] was 20 (34.5) n (%) and the MCyR [1, 18] was 23 (39.7) n (%). The MMR ([1]; CML-CP, Total, all dose groups, 62 evaluable subjects, as of August 24, 2023) was 10 (16.1) n (%), the “dose-dependent increase in the frequency of adverse events” value ([2]; CML subjects, 10 mg BID to 240 mg QD, safety data cutoff June 2, 2023) was “no observed dose-dependent increase” and the “Grade ≥3 hematological adverse events associated with the test drug” value [2, 19] was “mostly manageable with treatment interruption”. The “non-hematological toxicity compared to ATP-competitive TKIs” value [2, 19] was “significant improvement in non-hematological toxicity”, the “pigmentation or severe arterial occlusive events and venous thromboembolic events” value [2, 19] was “no reported” and the “safety and tolerability profile” value [2, 19] was “favorable safety and tolerability profile”. The tolerability ([2]; CML-CP and CML-AP patients, extended follow-up, as of June 2, 2024) was “good tolerability”.
